# Marks after values point to notes of the source that are not given here.
# Key:
# [1] = tested on: saponin-induced vascular hyperplasia; assay: Saponin-induced vascular hyperplasia model (carotid artery endothelial denudation); type: in vivo, rat; conditions: for effect on saponin-induced smooth muscle cell hyperplasia (histology, in words): rat carotid artery 14 days after saponin denudation, 35 mg/kg/day days 1 to 14 by miniosmotic pump, 35 mg/kg/day
# Procedure: In order to induce vascular hyperplasia two procedures were used. In the first procedure, male Fisher 344 rats (18→30 weeks of age) were anaesthetised and approximately a 1 cm length of one of the carotid arteries exteriorised by dissection. The 1 cm arterial segment was clamped at both ends with padded artery clamps. A small volume of saponin solution (0.5 mg/ml in PBS) was injected, via a 30 gauge needle, into the arterial segment, left for 2 min and then withdrawn by suction. The 1 cm arterial section was ligated (5/0 silk) on each side of the needle hole and the arterial clamps removed, the artery reinteriorised and the wound sutured. On the following day animals were divided into control and treatment groups. The treatment group received the sulfated oligosaccharide, sulfated mannopentaose phosphate (PI-88) at a dose of 35 mg/kg/day for the next 14 days delivered via subcutaneously implanted miniosmotic pumps (Alzet 2ML2). Control animals were given the miniosmotic pumps containing saline. After 2 weeks the animals were anaesthetised (pentobarbitone), perfused with 10% buffered formalin for 20 minutes, euthanised (Pentobarbitone) and the denuded arterial segments were removed and processed for histological examination. The degree of intimal hyperplasia was determined using digital image analysis.
# The saponin-induced vascular hyperplasia model used in this study is a new procedure which has several important features which should be highlighted. First, brief exposure to the detergent saponin is used to denude the arterial wall of endothelial cells. Such a procedure is similar to the endothelial denudation resulting from balloon angioplasty. Second, massive vascular smooth muscle hyperplasia is observed in the saponin-treated carotid artery 14 days after saponin exposure (FIG. 1) when compared with the carotid artery from an untreated control animal (FIG. 2). In fact, almost complete occlusion of the blood vessel is observed in the saponin-treated vessel (FIG. 1). Third, based on control experiments, the saponin-induced vascular hyperplasia model represents an excellent system for screening of drugs which inhibit vascular hyperplasia, a process which occurs in atherosclerotic plaques and in angioplasty-associated restenosis.
# [2] = tested on: vascular intimal hyperplasia; assay: Balloon dilation model of vascular intimal hyperplasia (carotid artery); type: in vivo, rat
# From the text: In the second procedure, a traditional balloon dilation model, based essentially on the method described by Clowes et al.^8 was used. Thirteen male Wistar rats (16-20 weeks of age) were anaesthetised (avertin) and the left common carotid artery exteriorised via a ventral midline incision. A padded vascular clamp was applied to the most caudal end of the exteriorised artery. Following arteriotomy a 2 F Fogarty balloon catheter was inserted into the carotid artery, the vascular clamp removed and the catheter advanced 1-1.5 cm in a caudal direction. The balloon was inflated using a 0.12 cc of air and the catheter was withdrawn to the point of arterial insertion. The balloon was then deflated and this procedure was repeated twice more. On the third withdrawal the balloon was deflated, the catheter removed from the artery and simultaneously a padded vascular clamp applied immediately caudal to the arteriotomy but leaving room for the subsequent application of a ligature (5/0 silk). […]
# In the second procedure employing the balloon dilation model, the degree of vascular intimal hyperplasia was calculated as a percentage of the total area of the vessel cross-section. Specifically, the percentage of hyperplasia was determined to be the area of the tunica intima divided by the cross-sectional area of the artery.
substance,measurement,setting,value
sulfated mannopentaose phosphate [PI-88],Arterial Wall Thickness,"[1]; male Fisher 344 rats, saponin denudation of carotid artery, 35 mg/kg/day for 14 days via subcutaneous miniosmotic pump, mean ± SEM, P = 0.08 vs control",266.7 ± 27.7^b μm
same,Arterial Wall Thickness % Control,"[1]; male Fisher 344 rats, saponin denudation, 35 mg/kg/day for 14 days via miniosmotic pump, saline control = 100, mean ± SEM, P = 0.08",66.4 ± 6.9^b %
same,"effect on saponin-induced smooth muscle cell hyperplasia (histology, in words)",[1],reduction in the saponin-induced vascular hyperplasia
same,"effect on saponin-induced smooth muscle cell hyperplasia (histology, in words)",[1]; listed as sulfated mannopentaose phosphate,substantial reduction in smooth muscle cell hyperplasia
same,inhibition of vascular hyperplasia compared with untreated control animals,"[1]; saponin model, 35 mg/kg/day via miniosmotic pumps, histological examination of carotid arteries, P=0.08",34%
same,effect on vascular intimal hyperplasia (in words),"[2]; balloon dilation model, 35 mg/kg/day via miniosmotic pumps",statistically significant (P=0.0008) reduction in vascular intimal hyperplasia
same,Percentage of neointima,"[2]; male Wistar rats, balloon catheter dilation of left common carotid artery, 35 mg/kg/day for two weeks via subcutaneous miniosmotic pump, area of tunica intima divided by cross-sectional area of artery, saline control 57.66",36.02^a %

# From patent US6638916B1, “Use of sulfated oligosaccharides as inhibitors of cardiovascular disease” (The Australian National University, priority 1997, dated 2003)
